SMILES strings stand for the structures.

For assay [1], the target named is STAT3 (Homo sapiens, UniProt P40763). In words: Protein thermal shift assay with recombinant STAT3. It counts as binding. The arrangement: purchased Active motif 81095. The note with it: for ΔTm of STAT3: cut-off 2° C.; for lowest concentration that significantly (>2° C.) shifted the melt curve of STAT3: as low as; for EC50: non-linear hyperbolic binding curve, read-out: EC50 (half-maximal binding, maximum fluorescence versus dose). The protocol: (§1) FIG. 5 illustrates an embodiment of the present invention and illustrates evaluations of SIM-1 and SIM-2 as STAT3 inhibitors. (A) Protein thermal shift assay was performed to assess the melting of purified recombinant STAT3 (blue; 0.5 μg protein) (Tm=melting temperature=68.88° C.). The representative melting curves were derived after adding SIM-1 (red; 4 nM), SIM-2 (purple; 8 nM), and positive control stattic (grey; 20 nM) to the STAT3 protein. The differences of melting temperature (ΔTm) between pure protein and protein+ligands are −4.54° C., −4.16° C., and 0.39° C. for SIM-1, SIM-2, and stattic (ΔTm^cut-off>2° C.). (B) Phospho protein array analysis was conducted in cell lysates of MDA-MB-468 cells treated with DMSO control (top left), 25 ng/mL EGF (top right), EGF+10 nM SIM-1 (bottom left), and EGF+SIM-2 (bottom right) for 24 hrs. Each colored arrowhead represents a specific phosphoprotein, and the description was added in the bottom of array images. S=serine and Y=tyrosine. Relative levels of (C) Tyrosine 705 (Y705) phosphorylated STAT3, (D) Serine 727 (S727) phosphorylated STAT3, (E) Tyrosine 693 (Y693) phosphorylated STAT4, (F) Tyrosine 694 ([…]) phosphorylated STAT5A had been derived after normalizing the spot densities (n=5) with respective β-actin spots. Results are mean±SD of five different spot analyses. One-way ANOVA was adopted to test the significance of mean between groups at **p<0.01, and ****p<0.0001. Ns=no significance. Thermal shift assays of increasing doses of (G) SIM-1, (H) SIM-2, and (I) stattic with purified STAT1 protein (0.5 μg protein). The respective ΔTm values were given with the plot after matching with the color code. Similarly, full-length STAT5b protein melting was assessed with (J) SIM-1, (K) SIM-2, and (L) stattic. Results are confirmed after three different experiments.
FIG. 6 illustrates an embodiment of the present invention and illustrates dose-dependent curves of maximum fluorescence for SIM1 and SIM2. Protein thermal shift assay of recombinant STAT3 was performed with increasing doses of (A) SIM-1, (B) SIM-2, and (C) positive control “Stattic”. The maximum fluorescence for each dose was derived and then plotted in GraphPad Prism software with respective doses. The resultant non-liner hyperbolic curves provide half-maximal binding (EC50) for all three compounds.
This example provides a representative study of the present disclosure to test if SIM1 and SIM2 served as ligands of STAT3. Therefore, the present invention adopted a protein thermal shift assay in which […] of recombinant human STAT3 protein (active motif) was incubated with increasing doses of SIM1 and SIM2 followed by the execution of melting analysis starting from 25 to 95° C. as described elsewhere.

For assay [2], the target named is T1, purified STAT1 protein (Homo sapiens, UniProt P42224).
T1 sequence (P42224 1-750): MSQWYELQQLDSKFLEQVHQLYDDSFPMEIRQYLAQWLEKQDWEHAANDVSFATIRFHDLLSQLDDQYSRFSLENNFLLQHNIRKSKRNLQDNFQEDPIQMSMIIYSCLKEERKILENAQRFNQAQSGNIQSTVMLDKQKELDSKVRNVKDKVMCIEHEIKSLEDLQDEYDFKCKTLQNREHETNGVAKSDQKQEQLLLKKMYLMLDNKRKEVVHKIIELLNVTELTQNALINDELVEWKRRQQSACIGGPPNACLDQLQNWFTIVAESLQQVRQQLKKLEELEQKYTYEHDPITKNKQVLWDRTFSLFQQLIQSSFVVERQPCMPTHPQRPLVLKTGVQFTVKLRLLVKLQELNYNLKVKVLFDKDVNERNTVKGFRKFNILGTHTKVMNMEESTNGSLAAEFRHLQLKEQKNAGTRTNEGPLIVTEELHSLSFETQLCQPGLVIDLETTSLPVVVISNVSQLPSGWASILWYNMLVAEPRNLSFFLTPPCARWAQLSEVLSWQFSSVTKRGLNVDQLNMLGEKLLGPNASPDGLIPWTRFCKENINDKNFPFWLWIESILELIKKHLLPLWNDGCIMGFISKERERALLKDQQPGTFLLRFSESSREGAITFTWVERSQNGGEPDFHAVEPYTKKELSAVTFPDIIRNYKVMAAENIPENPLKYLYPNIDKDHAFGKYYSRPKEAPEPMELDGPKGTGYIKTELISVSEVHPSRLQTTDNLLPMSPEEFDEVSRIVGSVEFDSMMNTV
In words: Protein thermal shift (PTS) assay of STAT1. The format is binding. The note with it: for ΔTm at 0.02 µM: 20 nM. The protocol:
as §1
To confirm the result, PTS assay of STAT1 with SIM-1 (FIG. 5G), SIM-2 (FIG. 5H), and stattic (FIG. 5I) was performed. […] Similar results were observed while performing the binding assay with STAT5b.

Chain of STAT3 (P40763 whole entry): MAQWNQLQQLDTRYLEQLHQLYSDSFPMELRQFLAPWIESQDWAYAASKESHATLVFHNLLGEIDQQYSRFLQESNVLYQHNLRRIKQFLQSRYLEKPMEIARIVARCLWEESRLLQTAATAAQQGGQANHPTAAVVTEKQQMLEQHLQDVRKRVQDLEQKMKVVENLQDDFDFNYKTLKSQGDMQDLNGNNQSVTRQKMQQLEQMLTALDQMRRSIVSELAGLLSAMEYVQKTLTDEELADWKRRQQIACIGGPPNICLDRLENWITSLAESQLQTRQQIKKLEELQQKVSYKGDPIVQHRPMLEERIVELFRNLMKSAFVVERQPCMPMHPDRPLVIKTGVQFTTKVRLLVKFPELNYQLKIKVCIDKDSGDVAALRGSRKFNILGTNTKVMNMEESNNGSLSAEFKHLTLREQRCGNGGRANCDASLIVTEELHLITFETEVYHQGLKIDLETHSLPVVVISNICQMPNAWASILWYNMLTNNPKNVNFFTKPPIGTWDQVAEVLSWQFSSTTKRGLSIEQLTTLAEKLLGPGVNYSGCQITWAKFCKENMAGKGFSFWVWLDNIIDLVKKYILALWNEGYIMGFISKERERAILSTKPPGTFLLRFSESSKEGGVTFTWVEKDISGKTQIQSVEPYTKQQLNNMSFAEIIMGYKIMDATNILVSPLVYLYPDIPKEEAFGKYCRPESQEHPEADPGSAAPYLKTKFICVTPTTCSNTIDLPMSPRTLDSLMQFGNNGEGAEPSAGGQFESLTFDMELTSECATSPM

What is called EC50 is the midpoint of the concentration-response curve. A word on the ΔTm: it is the change in melting temperature against a reference sample. Consider `O=C(O)CCC(=O)NCc1csc2ccc(Cl)cc12` [SIM-1, 4-[(5-chloro-1-benzothiophen-3-yl)methylamino]-4-oxobutanoic acid], for which the “ΔTm of STAT3” value in assay [1] (4 nM ligand) is −4.54 °C. Moreover, in assay [1], the “lowest concentration that significantly (>2° C.) shifted the melt curve of STAT3” value came to 5 nM and the EC50 turned out to be 4.58 nM. In assay [2], the ΔTm at 0.02 µM turned out to be 0.29 °C. In addition, the “ΔTm of STAT1” value in assay [2] (concentration printed only as 'nM' (figure missing)) was 0.41 °C.

For the compound `CCOC(=O)c1c(NC(C)=O)sc2c(Cl)c(/C=N/O)ccc12` [SIM-2, ethyl 2-acetamido-7-chloro-6-(hydroxyiminomethyl)-1-benzothiophene-3-carboxylate], the “ΔTm of STAT3” value in assay [1] (6 nM ligand) was −4.16 °C. For the same compound, the “ΔTm of STAT3” value in assay [1] (8 nM ligand (FIG. 5A legend)) was −4.16 °C. Also, in assay [1], the “lowest concentration that significantly (>2° C.) shifted the melt curve of STAT3” value turned out to be 5 nM and the EC50 is 5.26 nM. The ΔTm at 0.01 µM in assay [2] (10 nM) is 0.46 °C. Besides, the ΔTm at 0.02 µM in assay [2] is 0.89 °C.

Values taken from patent US20250255847A1, “[…]s: Novel Drugs for Triple Negative Breast Cancer” (SIMMARON RSEARCH INC, priority 2024, published 2025).
